In ChEMBL document CHEMBL4610120, “New Broad-Spectrum Antibiotics Containing a Pyrrolobenzodiazepine Ring with Activity against Multidrug-Resistant Gram-Negative Bacteria” (J Med Chem, 2020):
Converted amounts (≈) assume the structure as drawn. The source made the active and inactive calls. The rule behind the calls is not given here.

Experiments:
Enterococcus faecium = experiment: Antibacterial activity against vancomycin resistant Enterococcus faecium NCTC 12204 by microdilution broth method; format: functional
[1] = Selectivity ratio of cytotoxicity against human WI38 cells to MIC for Acinetobacter baumannii ATCC 17978; format: toxicity, cell-based
[2] = Selectivity ratio of cytotoxicity against human WI38 cells to MIC for methicillin sensitive Staphylococcus aureus NCTC 6571; format: toxicity, cell-based
Enterococcus faecalis [3] = experiment: Antibacterial activity against vancomycin resistant Enterococcus faecalis NCTC 12201 by microdilution broth method; format: functional
Klebsiella pneumoniae [4] = experiment: Antimicrobial activity against Klebsiella pneumoniae M6 by microdilution broth method; format: functional
[5] = Cytotoxicity against human WI38 cells assessed as cell viability at 20 uM measured after 24 hrs by MTT assay relative to control; format: cell-based, WI-38; settings: read-out: Activity
Staphylococcus aureus [6] = experiment: Antibacterial activity against methicillin sensitive Staphylococcus aureus NCTC 6571 by microdilution broth method; format: functional
[7] = Selectivity ratio of cytotoxicity against human WI38 cells to MIC for multidrug-resistant Acinetobacter baumannii AYE; format: toxicity, cell-based
[8] = Selectivity ratio of cytotoxicity against human WI38 cells to MIC for methicillin resistant Staphylococcus aureus NCTC 13277; format: toxicity, cell-based
Acinetobacter baumannii [9] = experiment: Antimicrobial activity against multidrug-resistant Acinetobacter baumannii AYE by microdilution broth method; format: functional
DNA [10] = experiment: Stabilization of 5'-FAM-TAT-ATA-TAG-ATA-TTT-TTT-TAT-CTA-TAT-ATA-3'-TAMRA DNA (unknown origin) assessed as reduction in change in melting temperature at 1:1 to 5:1 ligand to DNA ratio measured after 3 hrs by FRET-based assay relative to control; format: ADME, nucleic-acid assay
Klebsiella pneumoniae [11] = experiment: Antimicrobial activity against multidrug-resistant Klebsiella pneumoniae NCTC 13368 by microdilution broth method; format: functional
Staphylococcus aureus [12] = experiment: Antibacterial activity against methicillin resistant Staphylococcus aureus NCTC 13277 by microdilution broth method; format: functional
Staphylococcus aureus [13] = experiment: Antibacterial activity against methicillin resistant Staphylococcus aureus NCTC 13616 by microdilution broth method; format: functional
[14] = Selectivity ratio of cytotoxicity against human WI38 cells to MIC for multidrug-resistant Pseudomonas aeruginosa NCTC 13437; format: toxicity, cell-based
[15] = Selectivity ratio of cytotoxicity against human WI38 cells to MIC for vancomycin sensitive Enterococcus faecalis NCTC 775; format: toxicity, cell-based
[16] = Selectivity ratio of cytotoxicity against human WI38 cells to MIC for Klebsiella pneumoniae M6; format: toxicity, cell-based
DNA [17] = experiment: Stabilization of 5'-FAM-TAT-AGA-TAT-AGA-TAT-TTT-ATA-TCT-ATA-TCT-ATA-3'-TAMRA DNA (unknown origin) assessed as reduction in change in melting temperature at 1:1 to 5:1 ligand to DNA ratio measured after 3 hrs by FRET-based assay relative to control; format: ADME, nucleic-acid assay
[18] = Selectivity ratio of cytotoxicity against human WI38 cells to MIC for Pseudomonas aeruginosa PAO1; format: toxicity, cell-based
[19] = Selectivity ratio of cytotoxicity against human WI38 cells to MIC for methicillin resistant Staphylococcus aureus NCTC 13616; format: toxicity, cell-based
[20] = Selectivity ratio of cytotoxicity against human WI38 cells to MIC for multidrug-resistant Klebsiella pneumoniae NCTC 13368; format: toxicity, cell-based
Pseudomonas aeruginosa [21] = experiment: Antimicrobial activity against Pseudomonas aeruginosa PAO1 by microdilution broth method; format: functional
Acinetobacter baumannii [22] = experiment: Antimicrobial activity against Acinetobacter baumannii ATCC 17978 by microdilution broth method; format: functional
[23] = Selectivity ratio of cytotoxicity against human WI38 cells to MIC for vancomycin resistant Enterococcus faecium NCTC 12204; format: toxicity, cell-based
Pseudomonas aeruginosa [24] = experiment: Antimicrobial activity against multidrug-resistant Pseudomonas aeruginosa NCTC 13437 by microdilution broth method; format: functional
[25] = Selectivity ratio of cytotoxicity against human WI38 cells to MIC for vancomycin resistant Enterococcus faecalis NCTC 12201; format: toxicity, cell-based
Enterococcus faecalis [26] = experiment: Antibacterial activity against vancomycin sensitive Enterococcus faecalis NCTC 775 by microdilution broth method; format: functional
[27] = biological target: T1, LexA repressor (Escherichia coli) (UniProt P0A7C2); experiment: Induction of Escherichia coli K12 MG1655 lexA promotor measured at 30 mins interval for 20 hrs by fluorescence assay relative to control; settings: Escherichia coli str. K-12 substr. MG1655
T1 sequence (whole entry): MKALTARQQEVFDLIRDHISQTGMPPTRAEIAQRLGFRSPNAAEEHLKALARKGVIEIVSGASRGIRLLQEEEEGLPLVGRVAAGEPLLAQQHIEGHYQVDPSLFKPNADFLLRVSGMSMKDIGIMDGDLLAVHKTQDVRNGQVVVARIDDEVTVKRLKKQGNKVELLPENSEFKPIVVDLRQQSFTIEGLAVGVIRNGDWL

[28] = biological target: T2, Protein RecA (Escherichia coli K-12) (UniProt P0A7G6); experiment: Induction of Escherichia coli K12 MG1655 recA promotor measured at 30 mins interval for 20 hrs by fluorescence assay relative to control; settings: Escherichia coli str. K-12 substr. MG1655
T2 sequence (whole entry): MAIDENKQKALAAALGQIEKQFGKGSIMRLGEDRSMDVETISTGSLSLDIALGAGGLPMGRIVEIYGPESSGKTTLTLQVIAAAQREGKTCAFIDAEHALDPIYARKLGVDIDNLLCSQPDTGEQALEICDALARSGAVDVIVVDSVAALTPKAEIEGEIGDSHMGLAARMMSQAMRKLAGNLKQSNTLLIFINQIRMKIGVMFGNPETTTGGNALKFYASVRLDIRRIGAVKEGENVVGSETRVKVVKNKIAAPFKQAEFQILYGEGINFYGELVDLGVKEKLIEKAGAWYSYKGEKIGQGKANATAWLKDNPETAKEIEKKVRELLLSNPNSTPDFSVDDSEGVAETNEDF

[29] = biological target: T3, DNA repair protein RecN (Escherichia coli) (UniProt P05824); experiment: Induction of Escherichia coli K12 MG1655 recN promotor measured at 30 mins interval for 20 hrs by fluorescence assay relative to control; settings: Escherichia coli str. K-12 substr. MG1655
T3 sequence (whole entry): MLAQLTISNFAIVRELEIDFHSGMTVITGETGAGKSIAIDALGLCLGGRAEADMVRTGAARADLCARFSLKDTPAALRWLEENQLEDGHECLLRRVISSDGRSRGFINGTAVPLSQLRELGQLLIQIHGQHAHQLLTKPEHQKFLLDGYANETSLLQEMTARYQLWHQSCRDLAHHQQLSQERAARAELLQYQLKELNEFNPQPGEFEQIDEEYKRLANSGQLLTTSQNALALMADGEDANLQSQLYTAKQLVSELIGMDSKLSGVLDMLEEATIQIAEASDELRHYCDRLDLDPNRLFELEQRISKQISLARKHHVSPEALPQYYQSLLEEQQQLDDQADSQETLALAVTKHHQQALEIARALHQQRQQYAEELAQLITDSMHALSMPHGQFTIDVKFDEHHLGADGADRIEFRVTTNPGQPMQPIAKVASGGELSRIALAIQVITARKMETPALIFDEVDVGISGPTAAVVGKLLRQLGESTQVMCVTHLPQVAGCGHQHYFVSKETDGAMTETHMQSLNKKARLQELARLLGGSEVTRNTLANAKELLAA

[30] = biological target: T4, Cell division inhibitor SulA (Escherichia coli K-12) (UniProt P0AFZ5); experiment: Induction of Escherichia coli K12 MG1655 sulA promotor measured at 30 mins interval for 20 hrs by fluorescence assay relative to control; settings: Escherichia coli str. K-12 substr. MG1655
T4 sequence (whole entry): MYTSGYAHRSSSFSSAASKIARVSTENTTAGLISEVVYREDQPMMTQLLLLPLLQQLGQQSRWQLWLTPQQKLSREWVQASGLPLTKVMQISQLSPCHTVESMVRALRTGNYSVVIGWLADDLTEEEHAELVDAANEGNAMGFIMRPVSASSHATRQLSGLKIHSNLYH

Compound	MIC (Enterococcus faecium) [µg/mL]	selectivity ratio [1]	selectivity ratio [2]	MIC (Enterococcus faecalis [3]) [µg/mL]	MIC (Klebsiella pneumoniae [4]) [µg/mL]	viability at 24 h, 20 µM [5] [%]	MIC (Staphylococcus aureus [6]) [µg/mL]	selectivity ratio [7]	selectivity ratio [8]	MIC (Acinetobacter baumannii [9]) [µg/mL]	fold change (FC) (DNA [10])	MIC (Klebsiella pneumoniae [11]) [µg/mL]	MIC (Staphylococcus aureus [12]) [µg/mL]	MIC (Staphylococcus aureus [13]) [µg/mL]	selectivity ratio [14]	fold change (FC) (DNA [17])	MIC (Pseudomonas aeruginosa [21]) [µg/mL]	MIC (Acinetobacter baumannii [22]) [µg/mL]	MIC (Pseudomonas aeruginosa [24]) [µg/mL]	MIC (Enterococcus faecalis [26]) [µg/mL]	other results
COc1cc2c(cc1OCCCC(=O)Nc1cc(C(=O)Nc3ccc(-c4cc(C(=O)N5CCCCC5)n(C)c4)cc3)n(C)c1)N=C[C@@H]1CCCN1C2=O	≤ 0.03	10	100	≤ 0.03	16 (≈ 22.2 µM)	> 85	≤ 0.03	10	100	2 (≈ 2.78 µM)	3 to 4	> 128	0.125 (≈ 0.174 µM)	0.06 (≈ 0.0834 µM)	10	3 to 4	> 128	2 (≈ 2.78 µM)	> 128	0.125 (≈ 0.174 µM)	selectivity ratio [15]: 100; selectivity ratio [16]: 10; selectivity ratio [18]: 10; selectivity ratio [19]: 100; selectivity ratio [20]: 10; selectivity ratio [23]: 100; selectivity ratio [25]: 100
COC(=O)c1cc(NC(=O)c2cc(NC(=O)CCCOc3cc4c(cc3OC)C(=O)N3CCC[C@H]3C=N4)cn2C)cn1C	0.5 (≈ 0.847 µM)	–	–	0.5 (≈ 0.847 µM)	> 128	35	0.5 (≈ 0.847 µM)	–	–	128 (≈ 217 µM)	3 to 4	> 128	2 (≈ 3.39 µM)	1 (≈ 1.69 µM)	–	3 to 4	128 (≈ 217 µM)	128 (≈ 217 µM)	> 128	1 (≈ 1.69 µM)	–
CCN(CC)C(=O)c1cc2cc(NC(=O)c3cc(NC(=O)CCCOc4cc5c(cc4OC)C(=O)N4CCC[C@H]4C=N5)cn3C)ccc2o1	≤ 0.125	10	100	≤ 0.125	8 (≈ 12 µM)	> 85	≤ 0.125	10	100	4 (≈ 5.98 µM)	3 to 4	64 (≈ 95.7 µM)	0.5 (≈ 0.748 µM)	0.25 (≈ 0.374 µM)	10	3 to 4	128 (≈ 191 µM)	4 (≈ 5.98 µM)	32 (≈ 47.9 µM)	0.25 (≈ 0.374 µM)	selectivity ratio [15]: 100; selectivity ratio [16]: 10; selectivity ratio [18]: 10; selectivity ratio [19]: 100; selectivity ratio [20]: 10; selectivity ratio [23]: 100; selectivity ratio [25]: 100
COc1cc2c(cc1OCCCC(=O)Nc1cc(C(=O)Nc3ccc(-c4cc(C(=O)N(C)C)n(C)c4)cc3)n(C)c1)N=C[C@@H]1CCCN1C2=O	≤ 0.125	10	100	≤ 0.125	2 (≈ 2.94 µM)	> 85	≤ 0.125	10	100	4 (≈ 5.88 µM)	3 to 4	8 (≈ 11.8 µM)	≤ 0.125	≤ 0.125	10	3 to 4	128 (≈ 188 µM)	4 (≈ 5.88 µM)	> 128	≤ 0.125	selectivity ratio [15]: 100; selectivity ratio [16]: 10; selectivity ratio [18]: 10; selectivity ratio [19]: 100; selectivity ratio [20]: 10; selectivity ratio [23]: 100; selectivity ratio [25]: 100
COc1cc2c(cc1OCCCC(=O)Nc1cc(C(=O)Nc3ccc4oc(C(=O)N(C)C)cc4c3)n(C)c1)N=C[C@@H]1CCCN1C2=O	≤ 0.125	10	100	0.5 (≈ 0.78 µM)	0.5 (≈ 0.78 µM)	> 85	≤ 0.125	10	100	4 (≈ 6.24 µM)	3 to 4	16 (≈ 25 µM)	≤ 0.125	≤ 0.125	10	3 to 4	128 (≈ 200 µM)	4 (≈ 6.24 µM)	64 (≈ 99.9 µM)	≤ 0.125	selectivity ratio [15]: 100; selectivity ratio [16]: 10; selectivity ratio [18]: 10; selectivity ratio [19]: 100; selectivity ratio [20]: 10; selectivity ratio [23]: 100; selectivity ratio [25]: 100
CO[C@H]1/C=C/O[C@@]2(C)Oc3c(C)c(O)c4c(O)c(c(/C=N/N5CCN(C)CC5)c(O)c4c3C2=O)NC(=O)/C(C)=C\C=C\[C@H](C)[C@H](O)[C@@H](C)[C@@H](O)[C@@H](C)[C@H](OC(C)=O)[C@@H]1C	–	–	–	–	–	–	–	–	–	–	–	–	–	–	–	–	–	–	–	–	Activity [27]: inactive; Activity [28]: inactive; Activity [29]: inactive; Activity [30]: inactive
C[C@H]1COc2c(N3CCN(C)CC3)c(F)cc3c(=O)c(C(=O)O)cn1c23	–	–	–	–	–	–	–	–	–	–	–	–	–	–	–	–	–	–	–	–	fold change (FC) [27]: 5 to 13; fold change (FC) [28]: 20 to 35; fold change (FC) [29]: 14 to 32; fold change (FC) [30]: 17 to 41
CC1(C)S[C@@H]2[C@H](NC(=O)[C@H](N)c3ccccc3)C(=O)N2[C@H]1C(=O)O	–	–	–	–	–	–	–	–	–	–	–	–	–	–	–	–	–	–	–	–	Activity [27]: inactive; Activity [28]: inactive; Activity [29]: inactive; Activity [30]: inactive
CO[C@@H]1[C@@H](OC(N)=O)[C@@H](O)[C@H](Oc2ccc3c(O)c(NC(=O)c4ccc(O)c(CC=C(C)C)c4)c(=O)oc3c2C)OC1(C)C	–	–	–	–	–	–	–	–	–	–	–	–	–	–	–	–	–	–	–	–	fold change (FC) [27]: 5 to 13; fold change (FC) [28]: 20 to 35; fold change (FC) [29]: 14 to 32; fold change (FC) [30]: 17 to 41
